Series [1] can be described thus: Fluorescence quantum yield determination. The format is physicochemical. The settings on record: in DMSO, relative to rhodamin B. On the procedure: The samples’ steady-state fluorescence characteristics were measured in L-format using a Chronos DFD Fluorescence spectrometer (ISS, USA) equipped with a 300 W Cermax xenon arc lamp (ISS, USA), a concave holographic grating monochromator, and a PMT detector. The required amount of each sample was diluted in DMSO and measured in a 1-cm quartz cuvette at a constant temperature of 25 °C. The resulting data were evaluated using Vinci software (ISS, USA) and correlated to the utilized optical configuration.
Absorption spectra were measured using a high-performance Specord S 600 diode spectrophotometer (Jena Analyst, DE). The required amount of each sample was diluted in DMSO, added to 1-cm quartz cuvette, and measured within the selected absorbance spectrum range, against pure DMSO as a blank, at a constant temperature of 25 °C. The results were evaluated using WinASPECT® software (Jena Analyst, DE).
Fluorescence quantum yield was determined following a previously described protocol ([Kozma et al., 2005]; [Magde et al., 1999]; [Williams et al., 1983]). The kinetics of the incorporation of compounds into liposome membrane models was determined using steady-state fluorescence spectroscopy at a constant excitation and emission wavelength, according to the corresponding sample excitation and emission maxima. We added 50 μL of LNP suspension to 0.1 mM of the analyte in PBS, and monitored the increase of fluorescence intensity over the time range from 0 to 1400s. The preparation and characterization of the liposomal suspension is described in the supporting information (Fig. S4).
1. Supplementary material and methods
1.1. Fluorescence quantum yield (QY) determination
The steady-state fluorescence and absorption data were used for quantum yield determination. QY was determined relative to a reference compound, rhodamin B. Absorbance in the range of 0.01–0.1 was used to calculate the QY. We plotted two calibration curves of integrated emission fluorescence intensity as a function of sample absorbance. […]

The next series relates to CRFK cells. The series is described as follows: Cytotoxicity assay (Cell Counting Kit-8) in CRFK cells. Format: cell-based, Felis catus. The note with it: up to 10 µM. On the procedure: (§1) To determine the overall cytotoxicity of the tested compounds, Vero cells were cultured for 24 h in 96-well plates to form a confluent monolayer, and then were treated with the tested compounds at concentrations of 2 and 10 µM. After 48 h of cultivation in the dark at 37 °C under 5% CO2, the cell culture medium was aspirated. The potential cytotoxicity of the tested perylene derivatives was determined based on cell viability using Cell Counting Kit-8 (Dojindo Molecular Technologies, Munich, Germany) according to the manufacturer's instructions. The cell viabilities of compound-treated Vero cells were compared with those of control DMSO-treated cells. We also used the above-described protocol to assess the cytotoxicity of the selected perylene antivirals, at concentrations ranging from 0 to 10 µM, in CaCo-2 and CRFK cells.

Series [2] concerns SARS-CoV-2 (Wuhan strain). The series can be described thus: Viral titer inhibition assay, SARS-CoV-2 in CaCo-2 cells. The format is cell-based. The note with it: 0–10 µM.
The next series deals with CaCo-2 cells. The series can be described thus: Cytotoxicity assay (Cell Counting Kit-8) in CaCo-2 cells. The format is cell-based, human. The note with it: up to 10 µM. As to the method: as §1
The subject of another series is Vero cells. The series can be described thus: Light-induced cytotoxicity in Vero cells. The note with it: 0–10 µM, 465–480 nm 10 min, then 24 h in the dark. Format: cell-based, African Green Monkey. As to the method:
To determine the light-induced cytotoxicity of the tested compounds, Vero cells were cultured for 24 h in 96-well plates to form a confluent monolayer, and then were treated with the tested compounds at concentrations of 0 to 10 µM. Then, the compound-treated cells were irradiated for 10 min at RT with LEDs (465–480 nm) having an approximate power density of 30 mW/cm^2 (device description in Fig. S7). As a negative control, compound-treated cells were incubated for 10 min in the dark at RT. Subsequently, both irradiated and non-irradiated cell monolayers were incubated in the dark at 37 °C for 24 h. Then, the cell culture medium was aspirated and the potential cytotoxicity of the tested perylene derivatives was determined based on cell viability using Cell Counting Kit-8 (Dojindo Molecular Technologies, Munich, Germany) according to the manufacturer's instructions.

The nature of series [3]: ROS generation rate / quantum yield, DPBF bleaching in methanol. The format is physicochemical. The settings on record: in methanol, DPBF trap, 450–470 nm illumination, riboflavin as reference.

Structures are written as SMILES.

Compound `CC(C)(C)C(=O)OCn1c(=O)c(C#Cc2ccc3c4cccc5cccc(c6cccc2c63)c54)cn(CC(=O)N(CCO)CCO)c1=O` [Compound 13] registered a fluorescence quantum yield in series [1] of 90%. Moreover, in the series with CRFK cells, the “tolerability by CRFK cells” value is on record as “well-tolerated”. The “anti-SARS-CoV-2 activity in CaCo-2 cells” value in series [2] was “sub-micromolar”. In the series on CaCo-2 cells, the “tolerability by CaCo-2 cells” value is given as “well-tolerated”. In the series with Vero cells, the “effect of blue light irradiation on cytotoxicity” value is “dramatically increased”. Also, the “φROS (ROS generation quantum yield)” value in series [3] is recorded as 19.1 ± 0.2%.
